Data published in patent US20220218809A1, “IDO ACTIVITY AS A MARKER OF TUMOR IMMUNE ESCAPE AND IDO INHIBITORS AS A MEANS OF ENHANCING T CELLS RESPONSE TO ANTIGEN SPECIFIC VACCINE” (Wisconsin Alumni Research Foundation, priority 2018, published 2022).

Columns and labels:
[1] = system: PAP-specific IFNγ-secreting T cells (PBMC); assay: IFNγ ELISPOT of patient PBMC stimulated with PAP antigen; assay type: cell-based, human; conditions: PBMC from 22 patients after vaccine and pembrolizumab; IDO enzyme 5 ug/mL or 1-MDT 2 mM; 48 hours; changes not statistically significant
Protocol: ELISPOT for measuring IFNγ release was performed as previously described (21). For these analyses, cryopreserved PBMC were thawed, and cultured with PAP protein antigen (Fitzgerald Industries, Acton, Mass.), media alone, or phytohemaglutinin (PHA). Stimulations were also conducted in the presence of IDO enzyme (5 ug/mL) or 1-MDT (2 mM). After 48 hours, plates were developed and spots enumerated using an automated ELISPOT reader (ImmunoSpot, CTL, Shaker Heights, Ohio).
IDO activity is associated with modest decrease in vaccine antigen-specific T-cell function.

T-cell activation = conditions: literature (ref 22); cited from earlier work
IDO activity = assay: Serum kynurenine-to-tryptophan (kyn:trp) ratio as measure of IDO activity in treated mCRPC patients; assay type: in vivo, human; conditions: patients with mCRPC
Protocol: Tryptophan and kynurenine concentrations were measured directly in serum samples using a clinically validated LC/MS method. All analysis was performed by Worldwide Clinical Trials (Morrisville, N.C.) by personnel blinded to the sample source.
Patients with prostate cancer treated with an anti-tumor vaccine and/or PD-1 develop increased IDO activity and expression. […] Because IDO is also an IFNγ-regulated gene, we questioned whether prostate cancer immunotherapy similarly elicited increases in IDO expression. We have recently reported the results of a trial in which patients with mCRPC were treated with a DNA vaccine encoding PAP alone for 12 weeks, followed by pembrolizumab over the subsequent 12 weeks, or were treated with both agents for 12 weeks (17). Sera was assessed for kynurenine and tryptophan concentrations at baseline and at 12 and 24 weeks, effectively permitting an analysis of changes in IDO activity following treatment with vaccine alone, pembrolizumab alone, or the combination. […] IFNγ concentration was also directly evaluated in sera samples.

Question: For `Cn1cc(C[C@H](N)C(=O)O)c2ccccc21` [1-methyltryptophan], which “detection of PAP-specific IFNγ-secreting cells by ELISPOT” value [1] is on record?
Answer: increased the detection of IFNγ-secreting PAP-specific cells

Question: And the “effect on T-cell activation in vitro” value (T-cell activation)?
Answer: enhance T-cell activation in vitro

Question: With “IDO enzyme: indoleamine 2,3 dioxygenase enzyme added to the PBMC cultures” as the compound, how does the “detection of PAP-specific IFNγ-secreting cells by ELISPOT” value [1] read?
Answer: tended to suppress

Question: What does the source list for pembrolizumab?
Answer: median kyn:trp ratio post-treatment (IDO activity; after 12 weeks of treatment): 0.066; median kyn:trp ratio pre-treatment (IDO activity; before the 12-week treatment period): 0.061
